The record followed here is patent US20240158446A1, “CYCLIC COMPOUND HAVING SELECTIVE INHIBITORY ACTION ON KRAS OVER HRAS AND NRAS” (CHUGAI SEIYAKU KABUSHIKI KAISHA, priority 2021, published 2024).

For experiment [1], the target named is GDP-bound HRAS wild-type protein (Homo sapiens, UniProt P01112). The experiment in a line: Binding to HRAS by surface plasmon resonance (SPR), Single Cycle Kinetics. To be noted: SPR; GDP-bound HRAS wild-type protein vs GDP-bound KRAS wild-type protein; KD ratio class. For orientation: Surface plasmon resonance follows binding to a sensor surface in real time, without labels.

The target in experiment [2] is GDP-bound KRAS wild-type protein (Homo sapiens, UniProt P01116). In words: Binding to KRAS by surface plasmon resonance (SPR), Single Cycle Kinetics. As to conditions: SPR, Single Cycle Kinetics, 1:1 binding model; GDP-bound KRAS wild-type protein; read-out: KRAS KD.
Experiment [3] deals with GDP-bound NRAS wild-type protein (Homo sapiens, UniProt P01111). In words: Binding to NRAS by surface plasmon resonance (SPR), Single Cycle Kinetics. To be noted: SPR; GDP-bound NRAS wild-type protein vs GDP-bound KRAS wild-type protein; KD ratio class.
Experiment [4] has as its system human lung cancer strain NCI-H441.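 Also: cell proliferation inhibition after four days measured by CellTiter-Glo.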

The Kd is the constant that tells how readily two partners part at equilibrium. By IC50 is commonly meant the concentration at which inhibition is half-maximal.

Chain of GDP-bound KRAS wild-type protein (P01116 whole entry): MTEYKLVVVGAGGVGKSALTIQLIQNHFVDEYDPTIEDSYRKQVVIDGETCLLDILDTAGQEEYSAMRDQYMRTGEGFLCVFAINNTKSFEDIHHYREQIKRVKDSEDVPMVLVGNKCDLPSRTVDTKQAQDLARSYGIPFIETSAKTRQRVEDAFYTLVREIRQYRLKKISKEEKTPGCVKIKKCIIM
Chain of GDP-bound HRAS wild-type protein (P01112 whole entry): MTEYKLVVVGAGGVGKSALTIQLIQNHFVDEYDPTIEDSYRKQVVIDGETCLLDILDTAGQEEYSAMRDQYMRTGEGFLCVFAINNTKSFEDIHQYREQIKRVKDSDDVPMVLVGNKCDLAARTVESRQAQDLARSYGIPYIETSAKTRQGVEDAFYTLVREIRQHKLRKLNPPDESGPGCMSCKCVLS
Chain of GDP-bound NRAS wild-type protein (P01111 whole entry): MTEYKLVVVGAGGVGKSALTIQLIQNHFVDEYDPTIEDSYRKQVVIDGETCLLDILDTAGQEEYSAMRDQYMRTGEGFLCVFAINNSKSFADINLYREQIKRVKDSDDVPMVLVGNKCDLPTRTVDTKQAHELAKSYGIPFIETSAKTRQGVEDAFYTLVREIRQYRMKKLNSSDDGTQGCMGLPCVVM

In the case of `CC[C@H](C)[C@@H]1NC(=O)[C@H](C)N(C)C(=O)C[C@@H](C(=O)N(C)C)N(C)C(=O)[C@H](C2CCCC2)N(C)C(=O)C2(CCC2)NC(=O)[C@@H]2CCCN2C(=O)[C@H](CCc2cc(F)c(C(F)(F)F)c(F)c2)NC(=O)CN(C)C(=O)[C@H](Cc2ccc(C(F)(F)F)cc2)N2CC/C=C\C[C@@H](C2=O)N(C)C(=O)CN(C)C1=O` [PP1271, (2S,8S,14S,20S,23S,27S,30S,36S,38Z)-20-cyclopentyl-8-[2-[3,5-difluoro-4-(trifluoromethyl)phenyl]ethyl]-N,N,4,19,22,26,27,32,35-nonamethyl-30-[(1S)-1-methylpropyl]-3,6,9,15,18,21,25,28,31,34,42-undecaoxo-2-[[4-(trifluoromethyl)phenyl]methyl]spiro[1,4,7,10,16,19,22,26,29,32,35-undecazatricyclo[34.5.1.0^10,14]dotetracont-38-ene-17,1′-cyclobutane]-23-carboxamide], the “HRAS/KRAS (ratio of KD value for HRAS to KD value for KRAS)” value in experiment [1] was “A (a compound having 10 or more and less than 20 is denoted as A)”. The equilibrium dissociation constant (Kd) in experiment [2] was 0.054 nM. Besides, in experiment [3], the “NRAS/KRAS (ratio of KD value for NRAS to KD value for KRAS)” value is listed as “AA (a compound having 20 or more is denoted as AA)”. For the same compound, in experiment [4], 90.7 nM corresponded to half-maximal inhibition (IC50).

Consider `CC[C@H](C)[C@@H]1NC(=O)[C@H](CC(C)C)N(C)C(=O)C[C@@H](C(=O)N(C)C)N(C)C(=O)[C@H](C2CCCC2)N(C)C(=O)C2(CCC2)NC(=O)[C@@H]2CCCN2C(=O)[C@H](CCc2cc(F)c(C(F)(F)F)c(F)c2)NC(=O)CN(C)C(=O)[C@H](Cc2ccc(C(F)(F)F)cc2)N2CC/C=C\C[C@@H](C2=O)N(C)C(=O)CN(C)C1=O` [PP1272, (2S,8S,14S,20S,23S,27S,30S,36S,38Z)-20-cyclopentyl-8-[2-[3,5-difluoro-4-(trifluoromethyl)phenyl]ethyl]-27-isobutyl-N,N,4,19,22,26,32,35-octamethyl-30-[(1S)-1-methylpropyl]-3,6,9,15,18,21,25,28,31,34,42-undecaoxo-2-[[4-(trifluoromethyl)phenyl]methyl]spiro[1,4,7,10,16,19,22,26,29,32,35-undecazatricyclo[34.5.1.0^10,14]dotetracont-38-ene-17,1′-cyclobutane]-23-carboxamide], for which, in experiment [1], the “HRAS/KRAS (ratio of KD value for HRAS to KD value for KRAS)” value is “A (a compound having 10 or more and less than 20 is denoted as A)”. In addition, in experiment [2], the dissociation constant (Kd) came out at 0.11 nM. In experiment [3], the “NRAS/KRAS (ratio of KD value for NRAS to KD value for KRAS)” value was “A (a compound having 10 or more and less than 20 is denoted as A)”. Besides, in experiment [4], the half-inhibitory concentration (IC50) worked out at 24 nM.

`CC[C@H](C)[C@@H]1NC(=O)[C@H](CC)N(C)C(=O)C[C@@H](C(=O)N(C)C)N(C)C(=O)[C@H](C2CCCC2)N(C)C(=O)C2(CCCC2)NC(=O)[C@@H]2CCCN2C(=O)[C@H](CCc2cc(F)c(C(F)(F)F)c(F)c2)NC(=O)CN(C)C(=O)[C@H](Cc2ccc(C(F)(F)F)cc2)N2CC/C=C\C[C@@H](C2=O)N(C)C(=O)CN(C)C1=O` [PP1273, (2S,8S,14S,20S,23S,27S,30S,36S,38Z)-20-cyclopentyl-8-[2-[3,5-difluoro-4-(trifluoromethyl)phenyl]ethyl]-27-ethyl-N,N,4,19,22,26,32,35-octamethyl-30-[(1S)-1-methylpropyl]-3,6,9,15,18,21,25,28,31,34,42-undecaoxo-2-[[4-(trifluoromethyl)phenyl]methyl]spiro[1,4,7,10,16,19,22,26,29,32,35-undecazatricyclo[34.5.1.0^10,14]dotetracont-38-ene-17,1′-cyclopentane]-23-carboxamide]: in experiment [1], the “HRAS/KRAS (ratio of KD value for HRAS to KD value for KRAS)” value was “B (a compound having 3 or more and less than 10 is denoted as B)”. The Kd in experiment [2] stood at 0.12 nM. In addition, in experiment [3], the “NRAS/KRAS (ratio of KD value for NRAS to KD value for KRAS)” value is “A (a compound having 10 or more and less than 20 is denoted as A)”. Further, the IC50 in experiment [4] amounted to 16.5 nM.

`CCO[C@@H]1C[C@H]2C(=O)NC3(CC(F)(F)C3)C(=O)N(C)[C@@H](C3CCCC3)C(=O)N(C)[C@H](C(=O)N(C)C)CC(=O)N(C)[C@@H](CC)C(=O)N[C@@H]([C@@H](C)CC)C(=O)N(C)CC(=O)N(C)[C@H]3C/C=C\CCN(C3=O)[C@@H](Cc3ccc(C(F)(F)F)cc3)C(=O)N(C)CC(=O)N[C@@H](CCc3cc(F)c(C(F)(F)F)c(F)c3)C(=O)N2C1` [PP1274, (2S,8S,12R,14S,20S,23S,27S,30S,36S,38Z)-20-cyclopentyl-8-[2-[3,5-difluoro-4-(trifluoromethyl)phenyl]ethyl]-12-ethoxy-27-ethyl-1′,1′-difluoro-N,N,4,19,22,26,32,35-octamethyl-30-[(1S)-1-methylpropyl]-3,6,9,15,18,21,25,28,31,34,42-undecaoxo-2-[[4-(trifluoromethyl)phenyl]methyl]spiro[1,4,7,10,16,19,22,26,29,32,35-undecazatricyclo[34.5.1.0^10,14]dotetracont-38-ene-17,3′-cyclobutane]-23-carboxamide]: in experiment [1], the “HRAS/KRAS (ratio of KD value for HRAS to KD value for KRAS)” value is “A (a compound having 10 or more and less than 20 is denoted as A)”. The Kd in experiment [2] is 0.032 nM. In addition, the “NRAS/KRAS (ratio of KD value for NRAS to KD value for KRAS)” value in experiment [3] is “A (a compound having 10 or more and less than 20 is denoted as A)”. Also, the half-inhibitory concentration (IC50) in experiment [4] turned out to be 7.5 nM.

In the case of `CCO[C@@H]1C[C@H]2C(=O)NC3(CC(C)(C)C3)C(=O)N(C)[C@@H](C3CCCC3)C(=O)N(C)[C@H](C(=O)N(C)C)CC(=O)N(C)[C@@H](CC)C(=O)N[C@@H]([C@@H](C)CC)C(=O)N(C)CC(=O)N(C)[C@H]3C/C=C\CCN(C3=O)[C@@H](Cc3ccc(C(F)(F)F)cc3)C(=O)N(C)CC(=O)N[C@@H](CCc3cc(F)c(C(F)(F)F)c(F)c3)C(=O)N2C1` [PP1275, (2S,8S,12R,14S,20S,23S,27S,30S,36S,38Z)-20-cyclopentyl-8-[2-[3,5-difluoro-4-(trifluoromethyl)phenyl]ethyl]-12-ethoxy-27-ethyl-N,N,3′,3′,4,19,22,26,32,35-decamethyl-30-[(1S)-1-methylpropyl]-3,6,9,15,18,21,25,28,31,34,42-undecaoxo-2-[[4-(trifluoromethyl)phenyl]methyl]spiro[1,4,7,10,16,19,22,26,29,32,35-undecazatricyclo[34.5.1.0^10,14]dotetracont-38-ene-17,1′-cyclobutane]-23-carboxamide], the “HRAS/KRAS (ratio of KD value for HRAS to KD value for KRAS)” value in experiment [1] is “A (a compound having 10 or more and less than 20 is denoted as A)”. Moreover, in experiment [2], the equilibrium dissociation constant (Kd) is 0.047 nM. In experiment [3], the “NRAS/KRAS (ratio of KD value for NRAS to KD value for KRAS)” value was “A (a compound having 10 or more and less than 20 is denoted as A)”. In experiment [4], this compound registered a half-maximal inhibitory concentration (IC50) of 4.9 nM.

Turning to `CCO[C@@H]1C[C@H]2C(=O)NC3(CCCC3)C(=O)N(C)[C@@H](C3CCCC3)C(=O)N(C)[C@H](C(=O)N(C)C)CC(=O)N(C)[C@@H](CC)C(=O)N[C@@H]([C@@H](C)CC)C(=O)N(C)CC(=O)N(C)[C@H]3C/C=C\CCN(C3=O)[C@@H](Cc3ccc(C(F)(F)F)cc3)C(=O)N(C)CC(=O)N[C@@H](CCc3cc(F)c(C(F)(F)F)c(F)c3)C(=O)N2C1` [PP1276, (2S,8S,12R,14S,20S,23S,27S,30S,36S,38Z)-20-cyclopentyl-8-[2-[3,5-difluoro-4-(trifluoromethyl)phenyl]ethyl]-12-ethoxy-27-ethyl-N,N,4,19,22,26,32,35-octamethyl-30-[(1S)-1-methylpropyl]-3,6,9,15,18,21,25,28,31,34,42-undecaoxo-2-[[4-(trifluoromethyl)phenyl]methyl]spiro[1,4,7,10,16,19,22,26,29,32,35-undecazatricyclo[34.5.1.0^10,14]dotetracont-38-ene-17,1′-cyclopentane]-23-carboxamide], the “HRAS/KRAS (ratio of KD value for HRAS to KD value for KRAS)” value in experiment [1] was “B (a compound having 3 or more and less than 10 is denoted as B)”. The Kd in experiment [2] is 0.066 nM. Also, in experiment [3], the “NRAS/KRAS (ratio of KD value for NRAS to KD value for KRAS)” value is “A (a compound having 10 or more and less than 20 is denoted as A)”. In addition, the IC50 in experiment [4] worked out at 20.8 nM.

Turning to `CCO[C@@H]1C[C@H]2C(=O)NC3(CCCCC3)C(=O)N(C)[C@@H](C3CCCC3)C(=O)N(C)[C@H](C(=O)N(C)C)CC(=O)N(C)[C@@H](CC)C(=O)N[C@@H]([C@@H](C)CC)C(=O)N(C)CC(=O)N(C)[C@H]3C/C=C\CCN(C3=O)[C@@H](Cc3ccc(C(F)(F)F)cc3)C(=O)N(C)CC(=O)N[C@@H](CCc3cc(F)c(C(F)(F)F)c(F)c3)C(=O)N2C1` [PP1277], in experiment [1], the “HRAS/KRAS (ratio of KD value for HRAS to KD value for KRAS)” value was “A (a compound having 10 or more and less than 20 is denoted as A)”. The dissociation constant Kd in experiment [2] came to 0.25 nM. For the same compound, in experiment [3], the “NRAS/KRAS (ratio of KD value for NRAS to KD value for KRAS)” value was “A (a compound having 10 or more and less than 20 is denoted as A)”. Moreover, in experiment [4], inhibition was half-maximal at 79.8 nM (IC50).

In the case of `CCO[C@@H]1C[C@H]2C(=O)NC3(COC3)C(=O)N(C)[C@@H](C3CCCC3)C(=O)N(C)[C@H](C(=O)N(C)C)CC(=O)N(C)[C@@H](CC)C(=O)N[C@@H]([C@@H](C)CC)C(=O)N(C)CC(=O)N(C)[C@H]3C/C=C\CCN(C3=O)[C@@H](Cc3ccc(C(F)(F)F)cc3)C(=O)N(C)CC(=O)N[C@@H](CCc3cc(F)c(C(F)(F)F)c(F)c3)C(=O)N2C1` [PP1278, (2S,8S,12R,14S,20S,23S,27S,30S,36S,38Z)-20-cyclopentyl-8-[2-[3,5-difluoro-4-(trifluoromethyl)phenyl]ethyl]-12-ethoxy-27-ethyl-N,N,4,19,22,26,32,35-octamethyl-30-[(1S)-1-methylpropyl]-3,6,9,15,18,21,25,28,31,34,42-undecaoxo-2-[[4-(trifluoromethyl)phenyl]methyl]spiro[1,4,7,10,16,19,22,26,29,32,35-undecazatricyclo[34.5.1.0^10,14]dotetracont-38-ene-17,3′-oxetane]-23-carboxamide], the “HRAS/KRAS (ratio of KD value for HRAS to KD value for KRAS)” value in experiment [1] is “B (a compound having 3 or more and less than 10 is denoted as B)”. The Kd in experiment [2] was determined as 0.14 nM. Moreover, in experiment [3], the “NRAS/KRAS (ratio of KD value for NRAS to KD value for KRAS)” value was “A (a compound having 10 or more and less than 20 is denoted as A)”. Further, inhibition in experiment [4] was half-maximal at 45.7 nM (IC50).
